Where a name gives a salt, the structure may show the parent alone.
Tests used:
Type in all cases: cell-based, Human
Conditions in all cases: ten-day drug treatment, 156.25 nM to 10 μM, resazurin fluorescence
[1] = test system: MCF7 TP53 KO 3.4 pool; assay: Drug screening, resazurin, TP53 KO 3.4 pool
[2] = test system: MCF7 TP53 KO 5.6 pool; assay: Drug screening, resazurin, TP53 KO 5.6 pool
[3] = test system: MCF7 WT Parental pool; assay: Drug screening, resazurin, MCF7 wild type parental pool

Structure (SMILES) | TP53 KO 3.4 pool (AUC) [1] | TP53 KO 5.6 pool (AUC) [2] | MCF7 WT Parental pool (AUC) [3]
C[C@]12CC[C@@H]3c4ccc(OC(=O)N(CCCl)CCCl)cc4CC[C@H]3[C@@H]1CC[C@@H]2OP(=O)(O)O [Estramustine Phosphate Sodium] | 9.491 | 9.348 | 9.864
COc1cc([C@@H]2c3cc4c(cc3[C@@H](O[C@@H]3O[C@@H]5CO[C@@H](C)O[C@H]5[C@H](O)[C@H]3O)[C@H]3COC(=O)[C@H]23)OCO4)cc(OC)c1O [Etoposide] | 2.818 | 3.06 | 2.93
CO[C@H]1C[C@@H]2CC[C@@H](C)[C@@](O)(O2)C(=O)C(=O)N2CCCC[C@H]2C(=O)O[C@H]([C@H](C)C[C@@H]2CC[C@@H](OCCO)[C@H](OC)C2)CC(=O)[C@H](C)/C=C(\C)[C@@H](O)[C@@H](OC)C(=O)[C@H](C)C[C@H](C)/C=C/C=C/C=C/1C [Everolimus] | 2.251 | 3.834 | 4.699
O=c1[nH]c(=O)n([C@H]2C[C@H](O)[C@@H](CO)O2)cc1F [Floxuridine] | 1.85 | 1.997 | 2.391
Nc1nc(F)nc2c1ncn2[C@@H]1O[C@H](COP(=O)(O)O)[C@@H](O)[C@@H]1O [FludarabinePhosphate] | 8.135 | 7.936 | 8.551
C[C@]12CC[C@@H]3c4ccc(O)cc4C[C@@H](CCCCCCCCC[S+]([O-])CCCC(F)(F)C(F)(F)F)[C@H]3[C@@H]1CC[C@@H]2O (stereo partly drawn) [Fulvestrant] | 3.797 | 4.145 | 4.6
COc1cc2ncnc(Nc3ccc(F)c(Cl)c3)c2cc1OCCCN1CCOCC1 [Gefintinib] | 7.676 | 8.242 | 8.974
Nc1ccn([C@@H]2O[C@H](CO)[C@@H](O)C2(F)F)c(=O)n1 [Gemcitabine Hydrochloride] | 1.464 | 1.827 | 2.888
NC(=O)NO [Hydroxyurea] | 8.069 | 8.455 | 9.246
C=CC(=O)N1CCC[C@@H](n2nc(-c3ccc(Oc4ccccc4)cc3)c3c(N)ncnc32)C1 [Ibrutinib] | 5.166 | 5.711 | 6.35
CC[C@H](Nc1ncnc2[nH]cnc12)c1nc2cccc(F)c2c(=O)n1-c1ccccc1 [Idelalisib] | 7.039 | 7.03 | 7.566
CC(C)Cn1cnc2c(N)nc3ccccc3c21 [Imiquimod] | 9.359 | 9.449 | 9.496
C/C(=C\c1csc(C)n1)[C@@H]1C[C@@H]2O[C@]2(C)CCC[C@H](C)[C@H](O)[C@@H](C)C(=O)C(C)(C)[C@@H](O)CC(=O)N1 [Ixabepilone] | 1.543 | 1.473 | 1.397
CC(C)C[C@H](NC(=O)CNC(=O)c1cc(Cl)ccc1Cl)B(O)O [Ixazomib] | 0.7086 | 0.8766 | 0.719
CS(=O)(=O)CCNCc1ccc(-c2ccc3ncnc(Nc4ccc(OCc5cccc(F)c5)c(Cl)c4)c3c2)o1 [Laptinib] | 5.619 | 5.857 | 5.364
Nc1cccc2c1CN(C1CCC(=O)NC1=O)C2=O (stereo not drawn) [Lenalidomide] | 8.782 | 8.801 | 8.724

Structure (SMILES) | TP53 KO 3.4 pool (AUC) [1] | TP53 KO 5.6 pool (AUC) [2] | MCF7 WT Parental pool (AUC) [3]
O=NN(CCCl)C(=O)NC1CCCCC1 [Lomustine] | 9.629 | 9.491 | 9.62
CC(=O)O[C@]1(C(C)=O)CC[C@H]2[C@@H]3C=C(C)C4=CC(=O)CC[C@]4(C)[C@H]3CC[C@@]21C [Megestrol Acetate] | 9.221 | 9.555 | 9.824
N[C@@H](Cc1ccc(N(CCCl)CCCl)cc1)C(=O)O [Melphalan Hydrochloride] | 6.158 | 5.95 | 5.766
S=c1nc[nH]c2nc[nH]c12 [Mercaptopurine] | 5.941 | 5.636 | 6.103
COc1c2occc2cc2ccc(=O)oc12 [Methoxsalen] | 10.56 | 10.48 | 8.476
CO[C@@]12[C@H](COC(N)=O)C3=C(C(=O)C(C)=C(N)C3=O)N1C[C@@H]1N[C@@H]12 [Mitomycin] | 1.003 | 0.912 | 1.122
Clc1ccc(C(c2ccccc2Cl)C(Cl)Cl)cc1 (stereo not drawn) [Mitotane] | 11.01 | 10.17 | 5.932
COc1nc(N)nc2c1ncn2[C@@H]1O[C@H](CO)[C@@H](O)[C@@H]1O [Nelarabine] | 11.04 | 10.08 | 8.659
Cc1cn(-c2cc(NC(=O)c3ccc(C)c(Nc4nccc(-c5cccnc5)n4)c3)cc(C(F)(F)F)c2)cn1 [Nilotinib] | 6.967 | 4.891 | 5.834
O=C(c1cc(Cc2n[nH]c(=O)c3ccccc23)ccc1F)N1CCN(C(=O)C2CC2)CC1 [Olaparib] | 8.58 | 7.433 | 5.48
COC(=O)C[C@](O)(CCCC(C)(C)O)C(=O)O[C@@H]1C(OC)=C[C@]23CCCN2CCc2cc4c(cc2[C@H]13)OCO4 [Omacetaxine Mepesuccinate] | 0.7692 | 0.7717 | 0.7749
C=CC(=O)Nc1cc(Nc2nccc(-c3cn(C)c4ccccc34)n2)c(OC)cc1N(C)CCN(C)C [Osimertinib] | 4.056 | 4.044 | 4.149
CC(=O)O[C@H]1C(=O)[C@@]2(C)[C@H]([C@H](OC(=O)c3ccccc3)[C@]3(O)C[C@H](OC(=O)[C@H](O)[C@@H](NC(=O)c4ccccc4)c4ccccc4)C(C)=C1C3(C)C)[C@]1(OC(C)=O)CO[C@@H]1C[C@@H]2O [Paclitaxel] | 1.453 | 1.432 | 1.453
Cc1[nH]c2ccccc2c1CCNCc1ccc(/C=C/C(=O)NO)cc1 [Panobinostat] | 0.5862 | 0.5971 | 0.6418
Cc1ccc(Nc2nccc(N(C)c3ccc4c(C)n(C)nc4c3)n2)cc1S(N)(=O)=O [Pazopanib Hydrochloride] | 6.259 | 6.349 | 6.767
Nc1nc2[nH]cc(CCc3ccc(C(=O)N[C@@H](CCC(=O)O)C(=O)O)cc3)c2c(=O)[nH]1 [Pemetrexed Disodium Salt Heptahydrate] | 2.438 | 2.852 | 2.501

— patent US20190309272A1, “Genetically Modified Cell Lines Including a TP53 Modification and Methods of Use” (UNIVERSITY OF SOUTH CAROLINA, priority 2018, published 2019)
